Key:
[1] = DRUGMATRIX: Phorbol Ester radioligand binding (ligand: [3H] PDBu); assay type: cell membranes, Mus musculus, ICR, Brain, Membrane; details: Not Active = under 50% inhibition at 10 µM
[2] = target: Mitogen-activated protein kinase 14 (Homo sapiens, UniProt Q16539); design: species or system Escherichia coli;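 further: inhibition of p38alpha enzyme activity in a biochemical kinase assay, with myelin basic protein serving as substrate; in other assays of this panel Not Active means under 50% inhibition at 10 µM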
Cytochrome P450 3A4 = Cytochrome P450 3A4 (Homo sapiens, UniProt P08684); details: bti-tn-5b1-4; further: in other assays of this panel Not Active means under 50% inhibition at 10 µM
[3] = target: Beta-1 adrenergic receptor (Homo sapiens, UniProt P08588); assay: DRUGMATRIX: Adrenergic beta1 radioligand binding (ligand: [125I] Cyanopindolol); assay type: cell membranes, CHO-K1, Membrane; details: cho-k1; Not Active = under 50% inhibition at 10 µM
[4] = target: Epidermal growth factor receptor (Homo sapiens, UniProt P00533); assay: DRUGMATRIX: Protein Tyrosine Kinase, EGF Receptor enzyme inhibition (substrate: Poly(Glu:Tyr)); assay type: cell-based, Insect cells; details: insect cells; Not Active = under 50% inhibition at 10 µM
[5] = DRUGMATRIX: Serotonin (5-Hydroxytryptamine) 5-HT3 radioligand binding (ligand: [3H] GR-65630); assay type: cell membranes, Membrane; details: hek293; Not Active = under 50% inhibition at 10 µM
[6] = DRUGMATRIX: Sodium/nucleoside co-transporter radioligand binding (ligand: nitrobenzylthioinosine); assay type: cell membranes, Cavia porcellus, Dunkin-Hartley, Cerebral cortex, Membrane; details: Not Active = under 50% inhibition at 10 µM

Chain of Cytochrome P450 3A4 (P08684 whole entry): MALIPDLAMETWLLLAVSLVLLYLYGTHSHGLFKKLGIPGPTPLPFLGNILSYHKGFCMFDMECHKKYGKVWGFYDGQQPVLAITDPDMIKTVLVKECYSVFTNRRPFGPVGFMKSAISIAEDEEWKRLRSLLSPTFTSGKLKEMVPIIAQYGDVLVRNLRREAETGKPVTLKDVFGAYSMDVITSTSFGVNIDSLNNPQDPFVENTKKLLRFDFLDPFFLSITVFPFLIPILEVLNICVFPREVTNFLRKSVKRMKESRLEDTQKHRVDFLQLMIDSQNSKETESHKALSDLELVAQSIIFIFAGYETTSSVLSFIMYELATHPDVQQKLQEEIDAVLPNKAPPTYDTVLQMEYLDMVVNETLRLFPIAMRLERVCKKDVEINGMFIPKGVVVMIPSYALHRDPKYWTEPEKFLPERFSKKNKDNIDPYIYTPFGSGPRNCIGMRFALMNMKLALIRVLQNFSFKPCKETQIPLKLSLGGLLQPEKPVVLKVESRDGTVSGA
Chain of Mitogen-activated protein kinase 14 (Q16539 whole entry): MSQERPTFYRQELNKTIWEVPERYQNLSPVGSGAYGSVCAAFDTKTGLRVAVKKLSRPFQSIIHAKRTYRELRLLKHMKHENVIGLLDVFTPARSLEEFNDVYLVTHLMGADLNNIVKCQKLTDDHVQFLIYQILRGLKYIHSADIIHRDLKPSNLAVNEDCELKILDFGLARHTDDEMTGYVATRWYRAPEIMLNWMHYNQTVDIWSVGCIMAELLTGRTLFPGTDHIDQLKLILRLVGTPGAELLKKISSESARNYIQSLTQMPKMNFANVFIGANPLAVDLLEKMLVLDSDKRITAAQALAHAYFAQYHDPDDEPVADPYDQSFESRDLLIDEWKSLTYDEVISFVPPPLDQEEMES
Chain of Beta-1 adrenergic receptor (P08588 whole entry): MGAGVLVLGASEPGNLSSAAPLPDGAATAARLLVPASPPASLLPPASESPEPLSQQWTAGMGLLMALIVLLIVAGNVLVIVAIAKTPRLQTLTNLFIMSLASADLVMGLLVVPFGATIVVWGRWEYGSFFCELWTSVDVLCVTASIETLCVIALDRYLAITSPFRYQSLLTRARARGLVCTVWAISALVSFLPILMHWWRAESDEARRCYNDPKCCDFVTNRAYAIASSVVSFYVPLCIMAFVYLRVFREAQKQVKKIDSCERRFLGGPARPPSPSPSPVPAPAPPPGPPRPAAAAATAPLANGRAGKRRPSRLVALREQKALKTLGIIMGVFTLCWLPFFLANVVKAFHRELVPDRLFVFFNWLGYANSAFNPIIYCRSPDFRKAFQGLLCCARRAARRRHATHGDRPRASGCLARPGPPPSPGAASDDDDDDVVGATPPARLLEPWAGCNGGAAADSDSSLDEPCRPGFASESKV

CC(C)(CO)C(O)C(=O)NCCCO (stereo not drawn) [PANTHENOL]
Not Active: IC50 [1] | Ki [1] | IC50 [2] | IC50 (Cytochrome P450 3A4) | Ki (Cytochrome P450 3A4) | IC50 [3] | IC50 [4] | IC50 [5] | Ki [5] | IC50 [6] | Ki [6]

COc1ccc(Cc2nccc3cc(OC)c(OC)cc23)cc1OC [PAPAVERINE]
Not Active: IC50 [1] | Ki [1] | IC50 [2] | IC50 (Cytochrome P450 3A4) | Ki (Cytochrome P450 3A4) | IC50 [3] | IC50 [4] | IC50 [5] | Ki [5] | IC50 [6] | Ki [6]

CCCCC1C(=O)N(c2ccccc2)N(c2ccccc2)C1=O [PHENYLBUTAZONE]
Not Active: IC50 [1] | Ki [1] | IC50 [2] | IC50 (Cytochrome P450 3A4) | Ki (Cytochrome P450 3A4) | IC50 [3] | IC50 [4] | IC50 [5] | Ki [5] | IC50 [6] | Ki [6]

Cc1cccc(Nc2cc(Cl)nc(SCC(=O)O)n2)c1C [PIRINIXIC ACID]
Not Active: IC50 [1] | Ki [1] | IC50 [2] | IC50 (Cytochrome P450 3A4) | Ki (Cytochrome P450 3A4) | IC50 [3] | IC50 [4] | IC50 [5] | Ki [5] | IC50 [6] | Ki [6]

CC[C@H](C)C(=O)O[C@H]1C[C@H](O)C=C2C=C[C@H](C)[C@H](CC[C@@H](O)C[C@@H](O)CC(=O)O)[C@H]21 [PRAVASTATIN]
Not Active: IC50 [1] | Ki [1] | IC50 [2] | IC50 (Cytochrome P450 3A4) | Ki (Cytochrome P450 3A4) | IC50 [3] | IC50 [4] | IC50 [5] | Ki [5] | IC50 [6] | Ki [6]

CC(C)(Sc1cc(C(C)(C)C)c(O)c(C(C)(C)C)c1)Sc1cc(C(C)(C)C)c(O)c(C(C)(C)C)c1 [PROBUCOL]
Not Active: IC50 [1] | Ki [1] | IC50 [2] | IC50 (Cytochrome P450 3A4) | Ki (Cytochrome P450 3A4) | IC50 [3] | IC50 [4] | IC50 [5] | Ki [5] | IC50 [6] | Ki [6]

COBALT(II) ACETYLACETONATE
Not Active: IC50 [1] | Ki [1] | IC50 [2] | Ki [2] | IC50 (Cytochrome P450 3A4) | Ki (Cytochrome P450 3A4) | IC50 [3] | Ki [3] | IC50 [4] | Ki [4] | IC50 [5] | Ki [5] | IC50 [6] | Ki [6]

INSULIN HUMAN
Not Active: IC50 [1] | Ki [1] | IC50 [2] | Ki [2] | IC50 (Cytochrome P450 3A4) | Ki (Cytochrome P450 3A4) | IC50 [3] | Ki [3] | IC50 [4] | Ki [4] | IC50 [5] | Ki [5] | IC50 [6] | Ki [6]

POLYVINYL ALCOHOL
Not Active: IC50 [1] | Ki [1] | IC50 [2] | Ki [2] | IC50 (Cytochrome P450 3A4) | Ki (Cytochrome P450 3A4) | IC50 [3] | Ki [3] | IC50 [4] | Ki [4] | IC50 [5] | Ki [5] | IC50 [6] | Ki [6]

From ChEMBL document CHEMBL1909046, “DrugMatrix in vitro pharmacology data”
